According to patent publication US20110112104A1, “TRICYCLIC COMPOUNDS, A PROCESS FOR THEIR PREPARATION AND PHARMACEUTICAL COMPOSITIONS CONTAINING THEM” (LES LABORATOIRES SERVIER, priority 2008, published 2011):

System: caspase 3
Test: Induction of caspase activity in vitro
Assay type: cell-based, human
Details: H146 small-cell lung carcinoma cells, compound at 10 μM, 6 hours exposure
Experimental: This study was carried out on the following human tumour cell line: • 1 small-cell lung carcinoma, H146. This cell line is cultured in an incubator at 37° C. in the presence of 5% CO2. More specifically, the H146 cells are cultured in complete RPMI 1640 medium containing 10% foetal calf serum, 2 mM glutamine, 50 units/ml of penicillin, 50 μg/ml of streptomycin and 10 mM Hepes buffer, pH=7.4. The cells are distributed onto 6-well plates and exposed to the test compounds for 6 hours. They are then collected and lysed and the caspase activity is measured in the cell lysates. This enzymatic measurement is carried out by measuring the appearance of a fluorigenic cleavage product (Pharmacia).

SMILES | caspase 3 activity in cell lysates
CN(C)CC[C@H](CSc1ccccc1)Nc1ccc(S(=O)(=O)NC(=O)c2cc3c(cn2)N2CCN(Cc4ccccc4-c4ccc(Cl)cc4)CC2C3)cc1[N+](=O)[O-].Cl.Cl.Cl (stereo partly drawn) [Example 1, N-({2-[(4′-Chloro[1,1′-biphenyl]-2-yl)methyl]-1,2,3,4,10,10a-hexahydropyrido[4′,3′:4,5]pyrrolo[1,2-a]pyrazin-8-yl}carbonyl)-4-({(1R)-3-(dimethylamino)-1-[(phenylsulphanyl)methyl]propyl}amino)-3-nitro-benzenesulphonamide trihydrochloride] | 15395 RFU (Relative Fluorescence Units)
CN(C)CC[C@H](CSc1ccccc1)Nc1ccc(S(=O)(=O)NC(=O)c2ccc3c(n2)CC2CN(Cc4ccccc4-c4ccc(Cl)cc4)CCN32)cc1[N+](=O)[O-].Cl.Cl (stereo partly drawn) [Example 2, N-({8-[(4′-Chloro[1,1′-biphenyl]-2-yl)methyl]-6,7,8,9,9a,10-hexahydropyrido[2′,3′:4,5]pyrrolo[1,2-a]pyrazin-2-yl}carbonyl)-4-({(1R)-3-(dimethylamino)-1-[(phenylsulphanyl)methyl]propyl}amino)-3-nitro-benzenesulphonamide dihydrochloride] | 9948 RFU (Relative Fluorescence Units)
CN(C)CC[C@H](CSc1ccccc1)Nc1ccc(S(=O)(=O)NC(=O)c2cnc3c(c2)CC2CN(Cc4ccccc4-c4ccc(Cl)cc4)CCN32)cc1[N+](=O)[O-].Cl.Cl.Cl (stereo partly drawn) [Example 3, N-({7-[(4′-Chloro[1,1′-biphenyl]-2-yl)methyl]-5,5a,6,7,8,9-hexahydropyrido[3′,2′:4,5]pyrrolo[1,2-a]pyrazin-3-yl}carbonyl)-4-({(1R)-3-(dimethylamino)-1-[(phenylsulphanyl)methyl]propyl}amino)-3-nitro-benzenesulphonamide trihydrochloride] | 17776 RFU (Relative Fluorescence Units)
